Measurements from patent publication US20060147485A1, “Oil-in-water formulation of avermectins” (priority 2005, published 2006).

Key:
[1] = Stability of Abamectin in water at various pH-values and temperatures (dark, HPLC); type: physicochemical
Method: The stability of Abamectin in water at various pH-values and temperatures was determined. 194.4 mg of abamectin was dissolved in 10 ml methanol and 1 ml of the solution transferred to 100 ml of de-mineralised water and a part of this was transferred to a buffer solution. The sample was kept in the dark and the solution analysed using a HPLC.

[2] = Stability of Abamectin in water exposed to light at various pH-values (HPLC); type: physicochemical; settings: Light (5000-6000 lux)
Method: The stability of Abamectin in water exposed to light at various pH-values was determined. 194.4 mg of abamectin was dissolved in 10 ml methanol and 1 ml of the solution transferred to 100 ml of demineralised water and a part of this transferred to a buffer solution. The solution was exposed to light (5000-6000 lux) at 25° C. and analysed using a HPLC.

Abamectin
Abemectin concentration (ppm) ([1]; pH 4.0, 25 ° C., 7 days): 3.130 ppm | Abemectin concentration (ppm) ([1]; pH 4.0, 25 ° C., 14 days): 2.782 ppm | Abemectin concentration (ppm) ([1]; pH 4.0, 25 ° C., 21 days): 2.566 ppm | Abemectin concentration (ppm) ([1]; pH 4.0, 25 ° C., 28 days): 2.524 ppm | Abemectin concentration (ppm) ([1]; pH 4.0, 25 ° C., Initial): 3.495 ppm | Abemectin concentration (ppm) ([1]; pH 4.0, 50 ° C., 7 days): 1.054 ppm | Abemectin concentration (ppm) ([1]; pH 4.0, 50 ° C., 14 days): 0.383 ppm | Abemectin concentration (ppm) ([1]; pH 4.0, 50 ° C., 21 days): 0.123 ppm | Abemectin concentration (ppm) ([1]; pH 4.0, 50 ° C., 28 days): 0.0609 ppm | Abemectin concentration (ppm) ([1]; pH 4.0, 50 ° C., Initial): 3.495 ppm | Abemectin concentration (ppm) ([1]; pH 7.0, 25 ° C., 7 days): 3.188 ppm | Abemectin concentration (ppm) ([1]; pH 7.0, 25 ° C., 14 days): 3.040 ppm | Abemectin concentration (ppm) ([1]; pH 7.0, 25 ° C., 21 days): 2.829 ppm | Abemectin concentration (ppm) ([1]; pH 7.0, 25 ° C., 28 days): 2.676 ppm | Abemectin concentration (ppm) ([1]; pH 7.0, 25 ° C., Initial): 3.327 ppm | Abemectin concentration (ppm) ([1]; pH 7.0, 50 ° C., 7 days): 2.952 ppm | Abemectin concentration (ppm) ([1]; pH 7.0, 50 ° C., 14 days): 2.780 ppm | Abemectin concentration (ppm) ([1]; pH 7.0, 50 ° C., 21 days): 2.194 ppm | Abemectin concentration (ppm) ([1]; pH 7.0, 50 ° C., 28 days): 1.949 ppm | Abemectin concentration (ppm) ([1]; pH 7.0, 50 ° C., Initial): 3.327 ppm | Abemectin concentration (ppm) ([1]; pH 9.0, 25 ° C., 7 days): 3.005 ppm | Abemectin concentration (ppm) ([1]; pH 9.0, 25 ° C., 14 days): 2.596 ppm | Abemectin concentration (ppm) ([1]; pH 9.0, 25 ° C., 21 days): 2.380 ppm | Abemectin concentration (ppm) ([1]; pH 9.0, 25 ° C., 28 days): 2.287 ppm | Abemectin concentration (ppm) ([1]; pH 9.0, 25 ° C., Initial): 3.555 ppm | Abemectin concentration (ppm) ([1]; pH 9.0, 50 ° C., 7 days): 1.265 ppm | Abemectin concentration (ppm) ([1]; pH 9.0, 50 ° C., 14 days): 0.519 ppm | Abemectin concentration (ppm) ([1]; pH 9.0, 50 ° C., 21 days): 0.205 ppm | Abemectin concentration (ppm) ([1]; pH 9.0, 50 ° C., 28 days): 0.0628 ppm | Abemectin concentration (ppm) ([1]; pH 9.0, 50 ° C., Initial): 3.555 ppm | Abemectin concentration (ppm) ([2]; pH 4.0, 25° C., 7 days): 2.923 ppm | Abemectin concentration (ppm) ([2]; pH 4.0, 25° C., 14 days): 2.332 ppm | Abemectin concentration (ppm) ([2]; pH 4.0, 25° C., 21 days): 1.961 ppm | Abemectin concentration (ppm) ([2]; pH 4.0, 25° C., 28 days): 1.666 ppm | Abemectin concentration (ppm) ([2]; pH 4.0, 25° C., Initial): 3.495 ppm | Abemectin concentration (ppm) ([2]; pH 7.0, 25° C., 7 days): 2.941 ppm | Abemectin concentration (ppm) ([2]; pH 7.0, 25° C., 14 days): 2.529 ppm | Abemectin concentration (ppm) ([2]; pH 7.0, 25° C., 21 days): 2.223 ppm | Abemectin concentration (ppm) ([2]; pH 7.0, 25° C., 28 days): 2.034 ppm | Abemectin concentration (ppm) ([2]; pH 7.0, 25° C., Initial): 3.327 ppm | Abemectin concentration (ppm) ([2]; pH 9.0, 25° C., 7 days): 3.163 ppm | Abemectin concentration (ppm) ([2]; pH 9.0, 25° C., 14 days): 2.810 ppm | Abemectin concentration (ppm) ([2]; pH 9.0, 25° C., 21 days): 2.360 ppm | Abemectin concentration (ppm) ([2]; pH 9.0, 25° C., 28 days): 2.173 ppm | Abemectin concentration (ppm) ([2]; pH 9.0, 25° C., Initial): 3.555 ppm
